Measurements reported in publication PMC10222548, “Semisynthesis, Biological Evaluation and Molecular Docking Studies of Barbatic Acid Derivatives as Novel Diuretic Candidates” (Molecules, 2023).
“And” between values parts separate entries of the source, which are not always exact repeats. Identical values can stand only once.

How the values were obtained:
MDCK cells = assay: MTT cytotoxicity assay on MDCK cells; type: cell-based, canine; conditions: Canis lupus familiaris, 100 μmol/L, 24 h, mean ± SD of three replicates, read-out: Growth Inhibition Rate (%)
Method: First, we used the MTT method to perform cytotoxicity of barbatic acid derivatives (1, 6a–6p′) on MDCK cells at the concentration of 100 μmol/L, and the results are shown in Table 1.
The MTT assay was used to evaluate the cytotoxicity of the target compounds on DMCK cells. Logarithmic-growth-phase DMCK cells were seeded in a 96-well plate (10^4 cells/well) and incubated in a cell culture incubator for 24 h. The culture medium was then removed and replaced with a drug-containing medium for the treatment groups (1, 6a–6p′, 100 μmol/L), normal saline for the control group, or hydrochlorothiazide (100 μmol/L) for the positive control group. Each well was treated with 100 µL of the respective solution and incubated for an additional 24 h. The culture medium was then removed and replaced with a DMEM solution containing 20 µL of MTT (5 mg/mL). After incubating for 4 h, the liquid in each well was removed and replaced with 150 µL of DMSO, which was shaken for 10 min to ensure thorough mixing. The absorbance at 490 nm was measured to determine the optical density (OD) of each well. Cell growth inhibition rate (%) = (ODBlank − ODExperimental)/ODBlank × 100%.

[1] = tested on: Ca^2+ transport, MDCK cells; assay: In vitro litholytic activity: Ca^2+ transport inhibition, Transwell chamber with MDCK cells; type: cell-based, canine; conditions: Canis lupus familiaris, 100 μmol/L, mean ± SD of three replicates, read-out: Transport Inhibition Rate (%) Ca^2+
Method: (§1) On the other hand, all compounds had little inhibitory effect on Ca^2+ transport. The structure–activity relationships (SARs) were also observed. […] On the other hand, the introduction of the benzyl group to the R^1 or R^2 of barbatic acid could not lead to more promising compounds, such as 6a, 6n, 6u, 6b′, and 6i′–p′.
(§2) Logarithmic-phase DMCK cells were inoculated in the upper chamber of a Transwell plate (4 × 10^4 cells/well). Then, 800 µL of complete culture medium was added to the lower chamber, and the cells were incubated for 24 h until they adhered to the wall. The resistance value of the upper chamber cells was measured one by one at 37 °C (R = (Rcell − Rblank) × 0.04π). When the resistance value of the upper chamber cells was ≥300 Ω cm^2, the upper chamber liquid was discarded for drug administration. A control group (given physiological saline) and an experimental group (1, 6a–6p′, 100 μmol/L) were set up, and 100 µL of each drug was administered per well, followed by continued incubation for 24 h. Then, the upper and lower chamber liquids were discarded, and 200 µL of CaC2O4 (30 mmol/L) solution was added to the upper chamber, and 800 µL of PBS solution was added to the lower chamber for continued incubation. At 0.5, 1, 2, and 3 h, 50 µL of the lower chamber liquid was taken and then tested using the Ca^2+ and C2O4^2− detection kits and the following detection methods. The transport inhibition rate (%) = (ODblank − ODexperimental)/ODblank × 100%.

[2] = tested on: Cl^− transport, MDCK cells; assay: In vitro diuretic activity: Cl^− transport inhibition, Transwell chamber seeded with MDCK cells; type: cell-based, canine; conditions: Canis lupus familiaris; 100 μmol/L, MDCK cells in Transwell; mean ± SD of three replicates; negative = promotion; read-out: Transport Inhibition Rate (%) Cl^−
Description: (§3) The traditional methods for screening diuretic drugs are mostly in vivo experiments with mice, which have a long experimental cycle and are not suitable for screening massive compounds. As we know, the generation and excretion of urine involve two processes: glomerular filtration and tubular reabsorption. Reabsorption refers to the process in which the renal tubular epithelial cells transport water and certain solutes from the tubular fluid (urine) partially or entirely back into the bloodstream. Then, 99% of the water in the original urine filtered by the glomerulus is reabsorbed, and the transport of Na^+ and Cl^− plays an important role in this process. Thiazide and furosemide diuretics exert their diuretic effects by inhibiting the transport of Na^+ and Cl^−, which affects the tubular reabsorption of the original urine. Based on this principle, we established a new type of cell screening model for diuretic active drugs. Madin–Darby canine kidney (MDCK) cells were inoculated into a Transwell chamber to simulate the renal tubules. This cell model could transport and absorb external NaCl, simulating the reabsorption phenomenon. […] The effectiveness of this model was confirmed by the validation of hydrochlorothiazide, which is a commercially available diuretic drug and could inhibit the transport of Na^+ and Cl^− in renal tubules.
(§4) Generally, the transport of Na^+ and Cl^− plays an important role in glomerular filtration and tubular reabsorption. […] For example, inhibition rates of transport of 6a and 6c were over 30%, and had better inhibitory ability than barbatic acid. […] When ethyl, propyl, and benzyl were substituted on R^1, the introduction of any group could not enhance the inhibitory activity of barbatic acid, such as 6h–u and 6j′–6p′.
(§5) Log-phase MDCK cells were seeded in the upper chambers of Transwell plates (4 × 10^4 cells/well), and 800 µL of complete culture medium was added to the lower chambers. After 24 h of incubation at 37 °C, the electrical resistance of the upper chamber cells was measured one by one (R = (Rcell − Rblank) × 0.04π). When the electrical resistance of the upper chamber cells reached ≥300 Ω cm^2, the upper chamber medium was removed and replaced with the drug solution. The blank group (given normal saline), the experimental group (1, 6a–6p′, 100 μmol/L), and the hydrochlorothiazide group (100 μmol/L) were set, and each well was treated with 100 µL of the corresponding solution. The cells were then further incubated for 24 h. After that, the upper and lower chamber fluids were removed, and 200 µL of NaCl solution (15 mg/mL) was added to the upper chamber, while 800 µL of DMEM was added to the lower chamber for continued incubation. At 0.5, 1, 2, and 3 h, 50 µL of the lower chamber fluid was taken and the OD values were measured using Na^+ and Cl^− detection kits. The transport inhibition rate (%) was calculated as follows: transport inhibition rate (%) = (ODblank − ODexperimental)/ODblank × 100%.

[3] = tested on: Na^+ transport, MDCK cells; assay: In vitro diuretic activity: Na^+ transport inhibition, Transwell chamber seeded with MDCK cells; type: cell-based, canine; conditions: for inhibition at 100 µM: Canis lupus familiaris, MDCK, read-out: Transport Inhibition Rate (%) Na^+; for inhibition at 100 µM / Transport Inhibition Rate (%) Na^+: 100 μmol/L, MDCK cells in Transwell, mean ± SD of three replicates, negative = promotion
Description: as §3, §4, §5

[4] = tested on: C2O4^2− transport, MDCK cells; assay: In vitro litholytic activity: C2O4^2− transport inhibition, Transwell chamber with MDCK cells; type: cell-based, canine; conditions: for inhibition at 100 µM: Canis lupus familiaris, 100 μmol/L, MDCK cells in Transwell, mean ± SD of three replicates, read-out: Transport Inhibition Rate (%) C2O4^2−
Method: as §1, §2

SMILES	inhibition at 100 µM (MDCK cells)	inhibition at 100 µM [1]	inhibition at 100 µM [2]	melting point	inhibition at 100 µM [3]	inhibition at 100 µM [4]	Transport Inhibition Rate (%) Na^+ [3]	Na^+ transport inhibition rate at 1, 2, and 3 h ([3]; evaluated at 1, 2, and 3 h (Figure 3))	C2O4^2− transport inhibition activity at different time periods ([4]; 1, 2, and 3 h (Figure 4))
Cc1cc(OCc2ccccc2)c(C)c(O)c1C(=O)Oc1cc(C)c(C(=O)OCC#N)c(O)c1C [6o′, 4-((cyanomethoxy)carbonyl)-3-hydroxy-2,5-dimethylphenyl 4-(benzyloxy)-2-hydroxy-3,6-dimethylbenzoate]	< 0%	-1.82 ± 0.23%	-24 ± 1.5%	151 to 155 °C	-3.28 ± 0.75%	2.03 ± 1.07%			
Cc1cc(OCc2ccccc2)c(C)c(O)c1C(=O)Oc1cc(C)c(C(=O)OCc2ccccc2)c(O)c1C [6p′, benzyl 4-(4-(benzyloxy)-2-hydroxy-3,6-dimethylbenzoyloxy)-2-hydroxy-3,6-dimethylbenzoate]	< 0%	-3.34 ± 0.26%	-5.43 ± 0.85%	153 to 157 °C	16.3 ± 0.1%	7.16 ± 1.56%			
COc1cc(C)c(C(=O)Oc2cc(C)c(C(=O)OCc3ccccc3)c(O)c2C)c(O)c1C [Compound 6a, Benzyl 2-hydroxy-4-((2-hydroxy-4-methoxy-3,6-dimethylbenzoyl)oxy)-3,6-dimethylbenzoate]	< 0%	-7.98 ± 0.17%	8.76 ± 0.25%	113 to 115 °C	> 30%	-16.6 ± 0.37%	33.51 ± 5.95%		
COC(=O)c1c(C)cc(OC(=O)c2c(C)cc(OC)c(C)c2O)c(C)c1O [Compound 6b, 3-hydroxy-4-(methoxycarbonyl)-2,5-dimethylphenyl 2-hydroxy-4-methoxy-3,6-dimethylbenzoate]	< 0%	-5.14 ± 0.31%	5.71%	177 to 180 °C		-4.25 ± 1.08%	less than 10% and −9.31 ± 7.15%		
CCOC(=O)c1c(C)cc(OC(=O)c2c(C)cc(OC)c(C)c2O)c(C)c1O [Compound 6c, 4-(ethoxycarbonyl)-3-hydroxy-2,5-dimethylphenyl 2-hydroxy-4-methoxy-3,6-dimethylbenzoate]	< 0%	-2.3 ± 0.34%	-7.56 ± 0.35%	175 to 178 °C	> 30%	1.01 ± 2.03%	47.18 ± 0.80%	above 20%	
CCCOC(=O)c1c(C)cc(OC(=O)c2c(C)cc(OC)c(C)c2O)c(C)c1O [Compound 6d, 3-hydroxy-2,5-dimethyl-4-(propoxycarbonyl)phenyl 2-hydroxy-4-methoxy-3,6-dimethylbenzoate]	3.04 ± 0.3%	-9.93 ± 0.19%	-9.21 ± 0.45%	146 to 149 °C	8.04 ± 0.4%	-6.69 ± 8.67%			
COc1cc(C)c(C(=O)Oc2cc(C)c(C(=O)OC(C)C)c(O)c2C)c(O)c1C [Compound 6e, 3-hydroxy-4-(isopropoxycarbonyl)-2,5-dimethylphenyl 2-hydroxy-4-methoxy-3,6-dimethylbenzoate]	< 0%	-3.66 ± 0.27%	-3.13 ± 0.65%	135 to 138 °C	-0.88 ± 4.35%	-2.05 ± 3%			
C=CCOC(=O)c1c(C)cc(OC(=O)c2c(C)cc(OC)c(C)c2O)c(C)c1O [Compound 6f, allyl 2-hydroxy-4-(2-hydroxy-4-methoxy-3,6-dimethylbenzoyloxy)-3,6-dimethylbenzoate]	< 0%	-3.66 ± 0.25%	-0.61 ± 0.6%	155 to 157 °C	-0.5 ± 0.1%	6.89 ± 1.5%			
COc1cc(C)c(C(=O)Oc2cc(C)c(C(=O)OCC#N)c(O)c2C)c(O)c1C [Compound 6g]	0.12 ± 0.1%	-8.61 ± 0.19%	-27.7 ± 1%	184 to 187 °C	12.1 ± 1.3%	-12.6 ± 2.88%			
CCOc1cc(C)c(C(=O)Oc2cc(C)c(C(=O)OC)c(O)c2C)c(O)c1C [Compound 6h, 3-hydroxy-4-(methoxycarbonyl)-2,5-dimethylphenyl 4-ethoxy-2-hydroxy-3,6-dimethylbenzoate]	< 0%	-3.85 ± 0.19%	2.19 ± 0.55%	152 to 155 °C	-7.67 ± 1%	-4.23 ± 4.77%			
CCOC(=O)c1c(C)cc(OC(=O)c2c(C)cc(OCC)c(C)c2O)c(C)c1O [Compound 6i, 4-(ethoxycarbonyl)-3-hydroxy-2,5-dimethylphenyl 4-ethoxy-2-hydroxy-3,6-dimethylbenzoate]	< 0%	1.71 ± 0.13%	-2.13 ± 1.9%	187 to 190 °C	5.2 ± 3.6%	54 ± 10.4%			
CCCOC(=O)c1c(C)cc(OC(=O)c2c(C)cc(OCC)c(C)c2O)c(C)c1O [Compound 6j, 3-hydroxy-2,5-dimethyl-4-(propoxycarbonyl)phenyl 4-ethoxy-2-hydroxy-3,6-dimethylbenzoate]	< 0%	4.45 ± 0.29%	5.75 ± 1.1%	154 to 157 °C	5.2 ± 3.6%	42.3 ± 1.66%			very strong and continual inhibitory activities
CCOc1cc(C)c(C(=O)Oc2cc(C)c(C(=O)OC(C)C)c(O)c2C)c(O)c1C [Compound 6k, 3-hydroxy-4-(isopropoxycarbonyl)-2,5-dimethylphenyl 4-ethoxy-2-hydroxy-3,6-dimethylbenzoate]	< 0%	1.2 ± 0.13%	-7.1 ± 1%	125 to 128 °C	-62.5 ± 1.95%	-5.12 ± 1.75%			
